Common to all, as to assay type: functional
Experiment [1] can be described thus: Antifungal activity against Epidermophyton MTCC 613 by spectrophotometry based assay.
Another experiment deals with Saccharomyces cerevisiae. Kind of experiment: Antifungal activity against Saccharomyces cerevisiae MTCC 1344 by spectrophotometry based assay.
A further experiment concerns Candida albicans. The experiment is described as follows: Antifungal activity against Candida albicans MTCC 3018 by spectrophotometry based assay.
The next experiment has as its system Aspergillus niger. The experiment is described as follows: Antifungal activity against Aspergillus niger MTCC 2642 by spectrophotometry based assay.
Experiment [2] is described as follows: Antifungal activity against Cryptococcus gastricus MTCC 1715 by spectrophotometry based assay. As to conditions: Goffeauzyma gastrica.

Each structure is given as a SMILES string. In brackets after ≈: the same amount, converted by molar mass. A value given as a limit tells only on which side of the number the result lay.

A word on the MIC: it is the least concentration at which growth counts as inhibited. Low readings indicate a more susceptible organism, high ones a less susceptible organism.

For `OC(Cn1cncn1)(Cn1cncn1)c1ccc(F)cc1F` [FLUCONAZOLE], the minimal inhibitory concentration (MIC) in experiment [1] was found to be 6.25 µg/mL (≈ 20.4 µM); against Saccharomyces cerevisiae it was 1.5 µg/mL (≈ 4.9 µM); with Candida albicans it was 3.12 µg/mL (≈ 10.2 µM); with Aspergillus niger it was 1.5 µg/mL (≈ 4.9 µM); in experiment [2], 6.25 µg/mL (≈ 20.4 µM).

Regarding `CCOC(=O)C1=CC[C@H]2C(=O)c3ccc(Cl)cc3O[C@H]12`, the MIC with Saccharomyces cerevisiae is 25 µg/mL (≈ 85.4 µM); against Candida albicans, 50 µg/mL (≈ 171 µM); in the experiment with Aspergillus niger it was 25 µg/mL (≈ 85.4 µM).

Regarding `CCOC(=O)C1=CC[C@H]2C(=O)c3cc(Br)ccc3O[C@H]12`, the MIC in the experiment with Saccharomyces cerevisiae and in the experiment on Aspergillus niger was 50 µg/mL (≈ 148 µM) each time.

As to `CCOC(=O)C1=CC[C@H]2C(=O)c3cc(F)ccc3O[C@H]12`, the MIC in experiment [1] is over 100 µg/mL; against Saccharomyces cerevisiae, 25 µg/mL (≈ 90.5 µM); against Aspergillus niger, over 100 µg/mL.

On to `CCOC(=O)C1=CC[C@H]2C(=O)c3cccc(Cl)c3O[C@H]12`, for which the MIC is 50 µg/mL (≈ 171 µM) in experiment [1]; 12.5 µg/mL (≈ 42.7 µM) with Saccharomyces cerevisiae; 50 µg/mL (≈ 171 µM) in the experiment with Candida albicans; 12.5 µg/mL (≈ 42.7 µM) against Aspergillus niger; over 100 µg/mL in experiment [2].

Turning to `CCOC(=O)C1=CC[C@H]2C(=O)c3cc(C)ccc3O[C@H]12`, the MIC (in experiment [1]; against Saccharomyces cerevisiae; against Aspergillus niger) was over 100 µg/mL in each case.

Turning to `CCOC(=O)C1=CC[C@H]2C(=O)c3ccc(Br)cc3O[C@H]12`, the MIC with Saccharomyces cerevisiae and against Aspergillus niger was 100 µg/mL (≈ 297 µM) throughout.

Take `CCOC(=O)C1=CC[C@H]2C(=O)c3cc(Cl)ccc3O[C@H]12`: the MIC against Saccharomyces cerevisiae is over 100 µg/mL; in the experiment with Candida albicans, 50 µg/mL (≈ 171 µM); against Aspergillus niger it was 12.5 µg/mL (≈ 42.7 µM).

With `CCOC(=O)C1=CC[C@H]2C(=O)c3cc(F)c(Cl)cc3O[C@H]12`, the MIC in the experiment on Saccharomyces cerevisiae was 25 µg/mL (≈ 80.5 µM); in the experiment with Candida albicans it was over 100 µg/mL; with Aspergillus niger it was 100 µg/mL (≈ 322 µM).

`CCOC(=O)C1=CC[C@H]2C(=O)c3ccccc3O[C@H]12`: the MIC was over 100 µg/mL in experiment [1], 50 µg/mL (≈ 194 µM) in the experiment with Saccharomyces cerevisiae, 25 µg/mL (≈ 96.8 µM) against Candida albicans and 25 µg/mL (≈ 96.8 µM) in the experiment with Aspergillus niger.

Turning to `CCOC(=O)C1=CC[C@H]2C(=O)c3ccc(F)cc3O[C@H]12`, the MIC in experiment [1] is 50 µg/mL (≈ 181 µM); against Saccharomyces cerevisiae, 12.5 µg/mL (≈ 45.2 µM); against Candida albicans, 25 µg/mL (≈ 90.5 µM); in the experiment with Aspergillus niger, 12.5 µg/mL (≈ 45.2 µM); in experiment [2], 100 µg/mL (≈ 362 µM).
